Laboratory results from patent publication US20080242870A1 (priority 2006, published 2008).
Values joined by “and” are separate entries in the source; they are usually repeats but may differ in a detail not shown here. Equal values may be shown once. Read-outs that look alike come from different tables or passages of the source.

Experiments:
[1] = cited from earlier work
[2] = in toluene
[3] = depending on the solvent
Protocol: (§2) Luminescence lifetimes were measured with an IBH time-correlated single photon counting (TCSPC) system equipped with an IBH Model TBX-04 Photon Detection Module. The excitation source for the TCSPC measurements was a pulsed LED (IBH NanoLED, 455 nm, 1.3 ns pulse duration or 403 nm, <200 ps pulse duration) with a repetition rate of 1 MHz. All data was analyzed by iterative reconvolution of the decay profile (10,000 counts at the peak channel) with the instrument response function using software provided by the instrument manufacturer.

[4] = in toluene; remark: listed apart in the source
[5] = Emission spectra of anthracene diimides at room temperature (Example 1); type: physicochemical; details: (p) peak, (s) shoulder
Protocol: (§1) Unless otherwise stated, all experiments used optically dilute solutions (Optical Density (OD)<0.2) at room temperature. […] Emission spectra were obtained with an Aminco-Bowman luminescence spectrometer (Series 2). The excitation was accomplished with a 150 W Xe lamp optically coupled to a monochrometer (+2 nm). The emission was collected at […] and passed through a second monochrometer (±2 nm). Luminescence was measured with a photomultiplier tube (PMT).

[6] = Radiative quantum yield against standards (Example 1); type: physicochemical
Protocol: as §1

[7] = Luminescence lifetime by TCSPC (Example 1); type: physicochemical; details: for 1τ: TCSPC 370 nm pulsed LED
Protocol: as §2

[8] = Sub-ambient (77 K) emission in 2-methyltetrahydrofuran; type: physicochemical; details: for emission bands: 2-methyltetrahydrofuran, 405 nm excitation
Protocol: FIGS. 7a and 7b show normalized emission spectra for the diphenyl anthracene diimides (top) and the tetraphenyl anthracene diimides (bottom) at 77° K in 2-methyltetrahydrofuran and 405 nm excitation.
In an attempt to better understand the excited state properties of the diphenyl and tetraphenyl anthracene diimides, sub-ambient (77 K) emission experiments were performed, with the results shown in FIGS. 7a and 7b. In the case of the diphenyl derivatives, DPO (35), DP (37), and DC (39) display similar emission spectra with overlapping bands near 434 nm, […], and 492 nm. Although the peak ratios differ slightly, the band shapes and positions are nearly identical. […] Similar results are observed for the tetraphenyl series. Here, TPO (40) and TP (41) display spectral features analogous to DPO (35), DP (37), and DC (39), but at lower energy.

[9] = Stokes shift / Lippert-Mataga solvatochromic analysis; type: physicochemical
Excerpt: The solvatochromic response of the anthracene diimides to photoexcitation was further characterized by analysis of the Stokes' shift and Lippert-Mataga polarity parameter,
where v is the Stokes' shift in wavenumbers, h is Plank's constant, c is the speed of light, ∈0 is the permittivity of free space, Δμ is the change in the dipole moment upon excitation, α^3 is the molecule's volume, as is the solvent dielectric constant, and n is the solvent refractive index. This relationship quantifies the change in dipole between the ground state and excited state of a molecule and, when used with the calculated ground state dipole, the magnitude of the excited state dipole moment may be estimated. Each line represents a solvatochromic emission component of the corresponding diimide. All other bands were not solvatochromic and not included in the analysis. For example, the emission spectra of DPO (35) in the selection of solvents were nearly identical and could not be used in the Lippert-Mataga correlations. DP (37) had two components in the emission profiles; a higher energy band that quickly disappeared with increasing solvent polarity and a lower energy component that red-shifted with increasing solvent polarity.

[10] = Absorption spectra of anthracene diimides in solvents of increasing polarity (Example 1); type: physicochemical

Compound	Em. λmax ([5]; Acetone (20.1))	Em. λmax ([5]; C2H4Cl2 (10.7))	Em. λmax ([5]; CHCl3 (4.8))	Em. λmax ([5]; Ethyl Acetate (6.02))	Em. λmax ([5]; THF (7.6))	Em. λmax ([5]; Toluene (2.4))	Φr ([6]; Acetone (20.1))	Φr ([6]; C2H4Cl2 (10.7))	Φr ([6]; CHCl3 (4.8))	Φr ([6]; Ethyl Acetate (6.02))	Φr ([6]; THF (7.6))	Φr ([6]; Toluene (2.4))	1τ ([7]; C2H4Cl2 (10.7)) [ns]	1τ ([7]; CHCl3 (4.8)) [ns]	1τ ([7]; Toluene (2.4)) [ns]	Abs. λmax ([10]; Acetone (20.1)) [nm]	Abs. λmax ([10]; C2H4Cl2 (10.7)) [nm]	Abs. λmax ([10]; CHCl3 (4.8)) [nm]	Abs. λmax ([10]; Ethyl Acetate (6.02)) [nm]	Abs. λmax ([10]; THF (7.6)) [nm]	further results
c1ccc2cc3ccccc3cc2c1 [anthracene]																					Φr of standard ([1]; in EtOH): 0.27
N,N′-Bis(p-(tert-butyl)phenyl)-1,5-bis(phenyl)anthracene-2,3,6,7-tetracarboxyl diimide																					extinction coefficient, ∈ [2]: 8,500 M^−1 cm^−1; lifetime (single exponential) [3]: around 5.5 ns; quantum yield, Φ [4]: 0.29
CCCCCCOc1ccc(-n2c(=O)c3cc4cc5c(-c6ccc(C#N)cc6)c6c(=O)n(-c7ccc(OCCCCCC)cc7)c(=O)c6cc5cc4c(-c4ccc(C#N)cc4)c3c2=O)cc1 [DC]	599(p) nm	571(p) nm	555(p) nm and 504(s) nm	573(p) nm	579(p) nm	505(s) nm and 543(p) nm	0.0062	0.017	0.025	0.012	0.013	0.046	0.21	0.27	0.39	423	425	425	418	420	Em. λmax ([5]; ACN (38.8)): 600(p) nm; Φr ([6]; ACN (38.8)): 0.0051; 1τ ([7]; ACN (38.8)): <0.20 ns; 1τ ([7]; Acetone (20.1)): <0.20 ns; 1τ ([7]; Ethyl Acetate (6.02)): <0.20 ns; 1τ ([7]; THF (7.6)): <0.20 ns; emission bands ([8]; listed as DC (39)): ~434 nm and ~461 nm and ~492 nm; calculated dipole change (Δμ) ([9]; Lippert-Mataga correlation): 31.1 D; Stokes' shift of charge transfer excited state ([9]; from toluene to acetonitrile): 95 nm; Abs. λmax ([10]; ACN (38.8)): 423 nm; Abs. λmax ([10]; Toluene (2.4)): 417 nm
CCCCCCOc1ccc(-n2c(=O)c3cc4cc5c(-c6ccc(OC)cc6)c6c(=O)n(-c7ccc(OCCCCCC)cc7)c(=O)c6cc5cc4c(-c4ccc(OC)cc4)c3c2=O)cc1 [DM]	463(p) nm and 492(p) nm and 554(p) nm	463(p) nm and 490(s) nm and 526(p) nm	491(s) nm and 465(p) nm	463(p) nm and 488(p) nm and 526(p) nm	463(p) nm and 494(p) nm and 538(p) nm	462(p) nm and 488(s) nm	0.011	0.030	0.064	0.028	0.021	0.18	0.34	0.59	1.25	426	430	431	425	426	Em. λmax ([5]; ACN (38.8)): 463(p) nm and 487(s) nm and 551(p) nm; Φr ([6]; ACN (38.8)): 0.0087; red shift of emission spectrum ([8]; relative to the other members of the series): 13 nm; Abs. λmax ([10]; ACN (38.8)): 427 nm; Abs. λmax ([10]; Toluene (2.4)): 428 nm
F[P-](F)(F)(F)(F)F.F[P-](F)(F)(F)(F)F.[Ru+2].c1ccc(-c2ccccn2)nc1.c1ccc(-c2ccccn2)nc1.c1ccc(-c2ccccn2)nc1 [[Ru(bpy)3](PF6)2]																					Φr of standard ([1]; in CH3CN): 0.062
CCCCCCOc1ccc(-n2c(=O)c3cc4cc5c(-c6ccccc6)c6c(=O)n(-c7ccc(OCCCCCC)cc7)c(=O)c6cc5cc4c(-c4ccccc4)c3c2=O)cc1 [DP]	500(s) nm and 584(p) nm	502(s) nm and 557(p) nm	536(p) nm and 501(p) nm	500(s) nm and 555(p) nm	502(s) nm and 562(p) nm	497(p) nm and 525(p) nm	0.0082	0.020	0.028	0.015	0.017	0.066	<0.20	0.38	0.62	423	426	428	421	422	Φr ([6]; Toluene (2.4), listed as DP (37)): 0.18; 1τ ([7]; Acetone (20.1)): <0.20 ns; 1τ ([7]; Ethyl Acetate (6.02)): <0.20 ns; 1τ ([7]; THF (7.6)): <0.20 ns; lifetime ([7]; in ethyl acetate and solvents of higher polarity): below 200 ps; lifetime ([7]; in toluene): 620 ps; emission bands ([8]; listed as DP (37)): ~434 nm and ~461 nm and ~492 nm; slope of Lippert plot ([9]; second (lower energy) emission component, R^2=0.99): 6,600.2 cm^−1; Abs. λmax ([10]; Toluene (2.4)): 422 nm
CCCCCCCCn1c(=O)c2cc3cc4c(-c5ccccc5)c5c(=O)n(CCCCCCCC)c(=O)c5cc4cc3c(-c3ccccc3)c2c1=O [DPO]	435(p) nm	436(p) nm	437(p) nm	433(p) nm	435(p) nm	437(p) nm	0.37	0.46	0.36	0.34	0.37	0.35	5.60	5.79	6.36	421	424	426	420	421	Em. λmax ([5]; ACN (38.8)): 435(p) nm; Φr ([6]; ACN (38.8)): 0.46; 1τ ([7]; ACN (38.8)): 8.03 ns; 1τ ([7]; Acetone (20.1)): 7.29 ns; 1τ ([7]; Ethyl Acetate (6.02)): 6.90 ns; 1τ ([7]; THF (7.6)): 6.71 ns; emission bands ([8]; listed as DPO (35)): ~434 nm and ~461 nm and ~492 nm; Abs. λmax ([10]; ACN (38.8)): 423 nm; Abs. λmax ([10]; Toluene (2.4)): 422 nm
N,N′-Bis(m-(boronic acid)phenyl)-1,5-bis(phenyl)anthracene-2,3,6,7-tetracarboxyl diimide																					lifetime (single exponential) [3]: 5-5.5 ns
N,N′-Bis(methyl 18-crown-6)-1,5-bis(phenyl)anthracene-2,3,6,7-tetracarboxyl diimide																					extinction coefficient, ∈ [2]: 12,500 M^−1 cm^−1; lifetime (single exponential) [3]: 5.5-6.5 ns; quantum yield, Φ [4]: 0.37
